Results on one compound are retold here after publication PMC11274883, “Anticancer Effect of Pt^[sequence], Pt^II5MESS, Pt^II56MESS and Their Platinum(IV)-Dihydroxy Derivatives against Triple-Negative Breast Cancer and Cisplatin-Resistant Colorectal Cancer” (Cancers, 2024).

One data set relates to HT29 cells. Briefly: Cellular localisation of Pt (fractionation, ICP-MS). The format is cell-based. The following applies: HT29, 3 µM, 24 h. The protocol: (§1) MDA−MB−231 and HT29 cells were seeded at a final concentration of 10^6 cells/well in 6-well plates and incubated overnight. Cells were then treated with 3 µM of either Pt^II or Pt^IV complexes for 24 h. The media was next removed, and cells were washed three times with ice-cold PBS. Then the cells were trypsinised. The isolation of individual fractions was carried out using the Fraction-PREP Cell Fractionation kit (ab288085, Abcam, Cambridge, MA, USA). The cell pellet was resuspended in ice-cold PBS and moved to Eppendorf tubes to spin for 5 min at 700× g and supernatant was removed. The pellet was then resuspended in 400 µL of cytosol extraction buffer mix and incubated for 20 min on ice. Next, samples were centrifuged at 700× g for 10 min and the supernatant was collected as the cytosolic fraction. The pellet was then resuspended in 400 µL of ice-cold membrane A extraction buffer mix and vortexed for 10 s, after which membrane B extraction buffer mix was added and incubated on ice for 1 min. The sample was then vortexed and centrifuged for 5 min at 1000× g. […] The pellet was then resuspended in 200 µL of ice-cold nuclear extraction buffer, vortexed for 20 s and then incubated on ice for 40 min with constant vortexing every 10 min. The samples were then centrifuged for 10 min at maximum speed. […] Platinum cell localisation was then measured via ICP-MS, as described in Section 2.5.

Another data set relates to MDA−MB−231 cells. Described as above. It is filed as cell-based. The following applies: MDA−MB−231, 3 µM, 24 h. The method, then:
as §1

As to `N.N.[Cl][Pt][Cl]` [Cisplatin, cisplatin], the “subcellular fraction with main platinum accumulation” value in the data set on HT29 cells and with MDA−MB−231 cells was “membrane/particulate fraction” throughout.
